Consider 12 compounds from US20240239790A1, “7-Morpholino-1,6-Naphthyridin-5-yl Derivatives and Pharmaceutical Compositions Thereof Useful as DNA-PK Inhibitor” (adMare Therapeutics Society, priority 2021, published 2024).

Like-named read-outs stand apart in the source and are kept apart here.

The subject of data set [1] is pH2AX induction in HCT116 ATM-/- multicellular tumour spheroids. The data set can be described thus: Prodrug Radiation Sensitization in Multicellular Tumour Spheroids, inhibition of pH2AX induction following radiation. The format is cell-based. The conditions noted are these: Homo sapiens, HCT-116, 20 Gy. The essentials:
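HCT116 and FaDu spheroids (~0.5 mm diameter), ATM-deficient lines included, in MEM/10% FBS/10 mM glucose at 37 °C under 20% vs 5% oxygen with stirring. Prodrugs 10 μM down to 3.5 nM, 20 Gy irradiation. pDNA-PK (ser 2056) or pH2AX (ser 139) scored in formalin-fixed cryosections 1 or 2 h post-radiation.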

Data set [2] has as its target T1, DNA-PK phosphorylation at Serine 2056 (Homo sapiens, UniProt P78527).
T1 construct: FaDu cells were purchased from ATCC; host or cells: FaDu
The data set can be described thus: Cellular Assay for Inhibition of DNA-PK Phosphorylation at Serine 2056 in FaDu cells (sandwich ELISA, neocarzinostatin). The format is cell-based. The conditions noted are these: pSer2056 DNA-PK, Table 3. An outline of the steps: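 FaDu cells pre-treated with compound (0.3% DMSO) for 1 h, then neocarzinostatin 1 μg/mL final added for 2 h to induce DSBs. Protein-normalised lysates read by sandwich ELISA for total and pSer2056 DNA-PK; % inhibition normalised between DMSO and NCS controls, IC50 from variable-slope log(inhibitor) fit.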

The next data set concerns FaDu cell line. The data set can be described thus: Prodrug Activation in Hypoxic Stirred Tumour Cell Suspensions. The conditions noted are these: 10 μM, 4 hours.
[3] abbreviates: 5% O2, inner layers, read-out: Prodrug 5% O2 Inner layers EC50.
[4] abbreviates: 5% O2, outer layers, read-out: Prodrug 5% O2 Outer layers EC50.
The mark [5] stands for this setting: 20% O2, outer layers, read-out: Prodrug 20% O2 Outer layers EC50.

As a reminder, the EC50 is the concentration giving half of the maximal effect. By IC50 is commonly meant the concentration that inhibits the measured activity by half. For the compound `Cn1c(CNS(=O)(=O)c2cnc3cc(N4CCOCC4)nc(O[C@H]4CC[C@@H](Nc5ncc(C(F)(F)F)cn5)CC4)c3c2)cnc1[N+](=O)[O-]` [LFA2091, N-[(3-methyl-2-nitro-imidazol-4-yl)methyl]-7-morpholino-5-[4-[[5-(trifluoromethyl)pyrimidin-2-yl]amino]cyclohexoxy]-1,6-naphthyridine-3-sulfonamide], the EC50 in data set [1] (setting [3]), in data set [1] (setting [4]) and in data set [1] (setting [5]) was 10 to 100 µM each time. For the same compound, the IC50 in data set [2] lay in the range of 10 to 30 µM. The “Fraction of prodrug converted to active form, Hypoxic 0.2% O2” value (from here on “Fraction … Hypoxic 0.2% O2”) with FaDu cell line was “D (D is 0 to 0.02)”. The “Fraction of prodrug converted to active form, Oxic 5% O2” value (“Fraction … Oxic 5% O2” for short) in the data set with FaDu cell line is given as “D (D is 0 to 0.02)”.
For `CC(NS(=O)(=O)c1cnc2cc(N3CCOCC3)nc(O[C@H]3CC[C@@H](Nc4ncc(C(F)(F)F)cn4)CC3)c2c1)c1cnc([N+](=O)[O-])n1C` (stereo partly drawn) [LFA2092, N-[1-(3-methyl-2-nitro-imidazol-4-yl)ethyl]-7-morpholino-5-[4-[[5-(trifluoromethyl)pyrimidin-2-yl]amino]cyclohexoxy]-1,6-naphthyridine-3-sulfonamide], the EC50 is 10 to 100 µM in data set [1] (setting [3]), 10 to 100 µM in data set [1] (setting [4]) and 1 to 10 µM in data set [1] (setting [5]). The compound further came in with an IC50 in data set [2] of 10 to 30 µM. The “Fraction … Hypoxic 0.2% O2” value with FaDu cell line was “D (D is 0 to 0.02)”. In the data set with FaDu cell line, the “Fraction … Oxic 5% O2” value was “D (D is 0 to 0.02)”.
Consider `Cc1cc(C#N)nc(N[C@H]2CC[C@@H](Oc3nc(N4CCOCC4)cc4ncc(OCc5cnc([N+](=O)[O-])n5C)cc34)CC2)n1` [LFA2093, 6-methyl-2-[[4-[[3-[(3-methyl-2-nitro-imidazol-4-yl)methoxy]-7-morpholino-1,6-naphthyridin-5-yl]oxy]cyclohexyl]amino]pyrimidine-4-carbonitrile], for which the EC50 in data set [1] (setting [3]), in data set [1] (setting [4]) and in data set [1] (setting [5]) was 1 to 10 µM throughout. In addition, the IC50 in data set [2] lay in the range of 10 to 30 µM. Moreover, in the data set with FaDu cell line, the “Fraction … Hypoxic 0.2% O2” value is given as “B (B is 0.05 to 0.15)”. In the data set on FaDu cell line, the “Fraction … Oxic 5% O2” value is “B (B is 0.05 to 0.15)”.
In the case of `Cc1cc(C#N)nc(N[C@H]2CC[C@@H](Oc3nc(N4CCOCC4)cc4ncc(OC(C)c5cnc([N+](=O)[O-])n5C)cc34)CC2)n1` (stereo partly drawn) [LFA2094, 6-methyl-2-[[4-[[3-[1-(3-methyl-2-nitro-imidazol-4-yl)ethoxy]-7-morpholino-1,6-naphthyridin-5-yl]oxy]cyclohexyl]amino]pyrimidine-4-carbonitrile], the EC50 in data set [1] (setting [3]) was in the range of 0.5 to 1 µM; in data set [1] (setting [4]), 1 to 10 µM; in data set [1] (setting [5]), 10 to 100 µM. Besides, the IC50 in data set [2] was 10 to 30 µM. The “Fraction … Hypoxic 0.2% O2” value in the data set on FaDu cell line is on record as “B (B is 0.05 to 0.15)”. For the same compound, the “Fraction … Oxic 5% O2” value in the data set with FaDu cell line is on record as “B (B is 0.05 to 0.15)”.
For the compound `Cn1c(COc2cnc3cc(N4CCOCC4)nc(O[C@H]4CC[C@@H](Nc5cncc(C(F)(F)F)n5)CC4)c3c2)cnc1[N+](=O)[O-]` [LFA2097, N-[4-[[3-[(3-methyl-2-nitro-imidazol-4-yl)methoxy]-7-morpholino-1,6-naphthyridin-5-yl]oxy]cyclohexyl]-6-(trifluoromethyl)pyrazin-2-amine], the EC50 in data set [1] (setting [3]), in data set [1] (setting [4]) and in data set [1] (setting [5]) was 10 to 100 µM each time. Moreover, the IC50 in data set [2] fell in the range of 10 to 30 µM. Also, the “Fraction … Hypoxic 0.2% O2” value with FaDu cell line is on record as “C (C is 0.02 to 0.05)”. Further, the “Fraction … Oxic 5% O2” value with FaDu cell line is on record as “D (D is 0 to 0.02)”.
For the compound `Cc1cc(C)nc(N[C@H]2CC[C@@H](Oc3nc(N4CCOCC4)cc4ncc(N(Cc5cnc([N+](=O)[O-])n5C)S(C)(=O)=O)cc34)CC2)n1` [LFA2098, N-[5-[4-[(4,6-dimethylpyrimidin-2-yl)amino]cyclohexoxy]-7-morpholino-1,6-naphthyridin-3-yl]-N-[(3-methyl-2-nitro-imidazol-4-yl)methyl]methanesulfonamide], the EC50 in data set [1] (setting [3]), in data set [1] (setting [4]) and in data set [1] (setting [5]) was 1 to 10 µM throughout. This compound also gave a concentration for half-maximal inhibition (IC50) in data set [2] of 0.1 to 1 µM. Also, in the data set on FaDu cell line, the “Fraction … Hypoxic 0.2% O2” value is on record as “B (B is 0.05 to 0.15)”. In the data set on FaDu cell line, the “Fraction … Oxic 5% O2” value was “D (D is 0 to 0.02)”.
With `CC(c1cnc([N+](=O)[O-])n1C)N(c1cnc2cc(N3CCOCC3)nc(O[C@H]3CC[C@@H](Nc4cncc(C(F)(F)F)n4)CC3)c2c1)S(C)(=O)=O` (stereo partly drawn) [LFA2099, N-[1-(3-methyl-2-nitro-imidazol-4-yl)ethyl]-N-[7-morpholino-5-[4-[[6-(trifluoromethyl)pyrazin-2-yl]amino]cyclohexoxy]-1,6-naphthyridin-3-yl]methanesulfonamide], the EC50 in data set [1] (setting [3]), in data set [1] (setting [4]) and in data set [1] (setting [5]) was 10 to 100 µM each time. Further, the IC50 in data set [2] fell in the range of 1 to 10 µM. Also, the “Fraction … Hypoxic 0.2% O2” value with FaDu cell line was “B (B is 0.05 to 0.15)”. Besides, the “Fraction … Oxic 5% O2” value in the data set on FaDu cell line was “D (D is 0 to 0.02)”.
Take `CC(c1cnc([N+](=O)[O-])n1C)N(c1cnc2cc(N3CCOCC3)nc(O[C@H]3CC[C@@H](Nc4nccnc4C#N)CC3)c2c1)S(C)(=O)=O` (stereo partly drawn) [LFA2100, N-[5-[4-[(3-cyanopyrazin-2-yl)amino]cyclohexoxy]-7-morpholino-1,6-naphthyridin-3-yl]-N-[1-(3-methyl-2-nitro-imidazol-4-yl)ethyl]methanesulfonamide]: the figures for the EC50 in data set [1] (setting [3]), in data set [1] (setting [4]) and in data set [1] (setting [5]) were 0.01 to 0.5 µM, 1 to 10 µM and 10 to 100 µM, respectively. In addition, in data set [2], the IC50 lay in the range of 10 to 30 µM. Further, the “Fraction … Hypoxic 0.2% O2” value in the data set with FaDu cell line is on record as “C (C is 0.02 to 0.05)”. For the same compound, the “Fraction … Oxic 5% O2” value in the data set with FaDu cell line is on record as “D (D is 0 to 0.02)”.
In the case of `Cn1c(CN(c2cnc3cc(N4CCOCC4)nc(O[C@H]4CC[C@@H](Nc5cncc(C(F)(F)F)n5)CC4)c3c2)S(C)(=O)=O)cnc1[N+](=O)[O-]` [LFA2101, N-[(3-methyl-2-nitro-imidazol-4-yl)methyl]-N-[7-morpholino-5-[4-[[6-(trifluoromethyl)pyrazin-2-yl]amino]cyclohexoxy]-1,6-naphthyridin-3-yl]methanesulfonamide], the EC50 in data set [1] (setting [3]), in data set [1] (setting [4]) and in data set [1] (setting [5]) was 10 to 100 µM in each case. Besides, in data set [2], the IC50 lay within 10 to 30 µM. Also, the “Fraction … Hypoxic 0.2% O2” value in the data set with FaDu cell line is listed as “C (C is 0.02 to 0.05)”. The “Fraction … Oxic 5% O2” value with FaDu cell line was “D (D is 0 to 0.02)”.
`Cn1c(CN(c2cnc3cc(N4CCOCC4)nc(O[C@H]4CC[C@@H](Nc5nccnc5C#N)CC4)c3c2)S(C)(=O)=O)cnc1[N+](=O)[O-]` [LFA2102, N-[5-[4-[(3-cyanopyrazin-2-yl)amino]cyclohexoxy]-7-morpholino-1,6-naphthyridin-3-yl]-N-[(3-methyl-2-nitro-imidazol-4-yl)methyl]methanesulfonamide]: the concentration for a half-maximal effect (EC50) is 0.01 to 0.5 µM in data set [1] (setting [3]), 1 to 10 µM in data set [1] (setting [4]) and 1 to 10 µM in data set [1] (setting [5]). For the same compound, the IC50 in data set [2] was 10 to 30 µM. Besides, the “Fraction … Hypoxic 0.2% O2” value with FaDu cell line is “C (C is 0.02 to 0.05)”. For the same compound, the “Fraction … Oxic 5% O2” value in the data set with FaDu cell line is given as “D (D is 0 to 0.02)”.
For `Cn1c(CN(c2cnc3cc(N4CCOCC4)nc(O[C@H]4CC[C@@H](Nc5cnc(C#N)cn5)CC4)c3c2)S(C)(=O)=O)cnc1[N+](=O)[O-]` [LFA2103, N-[5-[4-[(5-cyanopyrazin-2-yl)amino]cyclohexoxy]-7-morpholino-1,6-naphthyridin-3-yl]-N-[(3-methyl-2-nitro-imidazol-4-yl)methyl]methanesulfonamide], the results for the EC50 in data set [1] (setting [3]), in data set [1] (setting [4]) and in data set [1] (setting [5]) were 0.01 to 0.5 µM, 1 to 10 µM and 10 to 100 µM, respectively. Moreover, the IC50 in data set [2] lay in the range of 1 to 10 µM. The “Fraction … Hypoxic 0.2% O2” value with FaDu cell line is reported as “B (B is 0.05 to 0.15)”. The “Fraction … Oxic 5% O2” value with FaDu cell line is recorded as “D (D is 0 to 0.02)”.
With `Cc1ccc(N[C@H]2CC[C@@H](Oc3nc(N4CCOCC4)cc4ncc(OC(C)c5cnc([N+](=O)[O-])n5C)cc34)CC2)nc1` (stereo partly drawn) [LFA2105, 5-methyl-N-[4-[[3-[1-(3-methyl-2-nitro-imidazol-4-yl)ethoxy]-7-morpholino-1,6-naphthyridin-5-yl]oxy]cyclohexyl]pyridin-2-amine], the EC50 in data set [1] (setting [3]) was 1 to 10 µM; in data set [1] (setting [4]) it was 1 to 10 µM; in data set [1] (setting [5]) it was 10 to 100 µM. For the same compound, the IC50 in data set [2] lay in the range of 10 to 30 µM. For the same compound, in the data set on FaDu cell line, the “Fraction … Hypoxic 0.2% O2” value was “A (A is 0.15 to 1)”. In addition, in the data set with FaDu cell line, the “Fraction … Oxic 5% O2” value is listed as “D (D is 0 to 0.02)”.
